Experimental data: US4725687A (priority 1986, dated 1988)
Where two headings read alike, the source gives them in different places.

Experiments:
[1] = tested on: L1210 cells; assay: L1210 cell growth inhibition in culture; type: cell-based; conditions: for IC50: Mus musculus; for potency in the L1210 cell growth inhibition test relative to 5-deazamethotrexate: compared with 5-deazamethotrexate; for potency in the L1210 cell growth inhibition test relative to MTX: compared with MTX
Text: (§1) (a) Methods are described by Sirotnak et al, "Molecular Actions and
(§2) Targets for Cancer Chemotherapy Agents", Sartorelli, A.C. Ed., Academic
(§3) Press., New York, pps. 349-383 (1981); Sirotnak et al, Biochem.
(§4) Pharmacol., Vol. 29, p. 3293 (1980); and Sirotnak et al, Cancer Res., Vol

[2] = tested on: P388/0; assay: Survival of P388/0 bearing mice, in vivo; parameters: species or system murine; conditions: for survival time: P388/0, ip, control 10.8 days; for % T/C: P388/0, survival time, ip
Text: (§5) Comparison of the Response of Murine P388/0
(§6) ^a Implant: ip, 10^6 cells; method described by Geran et al,
(§7) Cancer Chemother. Rep. Part 3, Vol. 3 (2) (1972).

[3] = tested on: P388/MTX; assay: Survival of P388/MTX (MTX-resistant P388) bearing mice, in vivo; parameters: species or system murine; conditions: ip; for survival time: control 17.2 days; for % T/C: survival time
Text: as §5, §6, §7

[4] = tested on: L1210 cells; assay: Rate of net polyglutamate formation in L1210 cells; type: cell-based; conditions: for order of initial rates of polyglutamate accumulation: comparable rates of drug entry; for Rate of net polyglutamate formation: conditions of comparable rates of drug entry
[5] = tested on: L1210 cells; assay: Mediated transport (influx, efflux) in L1210 cells; type: cell-based; conditions: n = 3-4, SE; for Km: influx
Text: as §1, §2, §3, §4

[6] = tested on: EO771 mammary adenocarcinoma; assay: Antitumor effects against the EO771 mammary adenocarcinoma in mice; type: in vivo; conditions: once per day for five days; for T/C (tumor volume treated/control) / tumor free total / AWC (average weight change): day 7; for toxic deaths total: day 7, 14 or 21; for ave. tumor vol.: day 7, ± SE, control 225 ± 60; for tumor free total: control 0/14
Text: 5-Methyl-5-Deazamethotrexate (20) Against the EO771
Mammary Adenocarcinoma. Average of Two Separate
Experiments (5 Mice/Group) ± SE of the Mean.
^1 given once per day for five days starting one day after tumor
^2 average weight change on day 7 (one day after cessation of therapy
^3 assessed on day 7, 14 or 21
^4 assessed on day 7 (4/3 πr^3) T/C = treated/control
^5 assessed on day 7 (one day after cessation of therapy)

[7] = read-out: Cell Growth inhibn IC50 (n = 4) ± SE, L1210 cells, n = 4, ± SE
[8] = qd 1-5, optimal dose 0.25 mg/kg

CN(Cc1cnc2nc(N)nc(N)c2c1)c1ccc(C(=O)N[C@@H](CCC(=O)O)C(=O)O)cc1 [Compound 5-dMTX, 5-deazamethotrexate, reference compound] was tested, and the IC50 [1, 7] was 2.85 ± 0.3 nM, the survival time ([2]; qd 1-5, optimal dose 4 mg/kg) was 18.0 days and the “% T/C” value ([2]; qd 1-5, optimal dose 4 mg/kg) was 166%. For the same compound, the survival time ([3]; qd 1-5, optimal dose 4 mg/kg) was 20.3 days, the “% T/C” value ([3]; qd 1-5, optimal dose 4 mg/kg) was 118% and the “order of initial rates of polyglutamate accumulation” value (“order” for short) [4] was “AMT>5-Me-5-dAMT>5-dAMT>MTX>5-dMTX>5-Me5-dMTX”. The “Rate of net polyglutamate formation” value [4] was 48.8 pM/min/g dry wt, the “Mediated Transport efflux k + SE” value [5] was 0.28 ± 0.04 min⁻¹ and the Km [5] was 4 ± 0.5 µM.

In the case of CCOC(=O)CC[C@H](NC(=O)c1ccc(NCc2cnc3nc(N)nc(N)c3c2)cc1)C(=O)OCC [Compound 9, N-[4-[[(2,4-Diaminopyrido[2,3-d]pyrimidin-6-yl)methyl]-amino]benzoyl]-L-glutamic Acid Diethyl Ester], the survival time ([2]; qd 1-5, optimal dose 1 mg/kg) is reported as 16.2 days, the “% T/C” value ([2]; qd 1-5, optimal dose 1 mg/kg) is reported as 151% and the survival time ([3]; qd 1-5, optimal dose 1 mg/kg) is reported as 20.8 days. The “% T/C” value ([3]; qd 1-5, optimal dose 1 mg/kg) was 120%.

For Nc1nc(N)c2cc(CNc3ccc(C(=O)N[C@@H](CCC(=O)O)C(=O)O)cc3)cnc2n1 [Compound 11], the IC50 [1, 7] was 0.63 ± 0.07 nM, the survival time ([2]; qd 1-5, optimal dose 0.5 mg/kg) was 15.8 days and the “% T/C” value ([2]; qd 1-5, optimal dose 0.5 mg/kg) was 146%. The survival time ([3]; qd 1-5, optimal dose 2 mg/kg) was 21.8 days, the “% T/C” value ([3]; qd 1-5, optimal dose 2 mg/kg) was 126% and the “order” value [4] was “AMT>5-Me-5-dAMT>5-dAMT>MTX>5-dMTX>5-Me5-dMTX”. For the same compound, the “Rate of net polyglutamate formation” value [4] was 84.2 pM/min/g dry wt, the “Mediated Transport efflux k + SE” value [5] was 0.30 ± 0.04 min⁻¹ and the Km [5] was 1.1 ± 0.2 µM.

Cc1c(CNc2ccc(C(=O)N[C@@H](CCC(=O)O)C(=O)O)cc2)cnc2nc(N)nc(N)c12 [Compound 12] was tested, and the IC50 ([1]; L1210, read-out: Cell Growth inhibn IC50 (n = 4) ± SE) was 1.29 ± 0.2 nM, the survival time ([2]; qd 1-5, optimal dose 0.5 mg/kg) was 16.4 days and the “% T/C” value ([2]; qd 1-5, optimal dose 0.5 mg/kg) was 151%. The survival time ([3]; qd 1-5, optimal dose 0.5 mg/kg) was 20.8 days, the “% T/C” value ([3]; qd 1-5, optimal dose 0.5 mg/kg) was 120% and the “order” value [4] was “AMT>5-Me-5-dAMT>5-dAMT>MTX>5-dMTX>5-Me5-dMTX”. For the same compound, the “Rate of net polyglutamate formation” value [4] was 98.3 pM/min/g dry wt, the “Mediated Transport efflux k + SE” value [5] was 0.26 ± 0.05 min⁻¹ and the Km [5] was 1.2 ± 0.2 µM.

In the case of Cc1c(CN(C)c2ccc(C(=O)N[C@@H](CCC(=O)O)C(=O)O)cc2)cnc2nc(N)nc(N)c12 [Compound 20, N-[4-[[2,4-Diamino-5-methylpyrido[2,3-d]pyrimidin-6-yl)methyl]methylamino]benzoyl-L-glutamic Acid], the IC50 [1, 7] is reported as 0.24 ± 0.03 nM, the “potency in the L1210 cell growth inhibition test relative to 5-deazamethotrexate” value [1] is reported as “more than 10 times” and the “potency in the L1210 cell growth inhibition test relative to MTX” value [1] is reported as 10 times. The “T/C (tumor volume treated/control)” value ([6]; 0.375 mg/kg) was 0.25, the toxic deaths total ([6]; 0.375 mg/kg) was 0/10 and the ave. tumor vol. ([6]; 0.375 mg/kg) was 50 ± 16 mm^3. The tumor free total ([6]; 0.375 mg/kg) was 0/10, the “T/C (tumor volume treated/control)” value ([6]; 0.75 mg/kg) was 0.13 and the toxic deaths total ([6]; 0.75 mg/kg) was 0/10. The ave. tumor vol. ([6]; 0.75 mg/kg) was 35 ± 10 mm^3, the tumor free total ([6]; 0.75 mg/kg) was 1/10 and the “T/C (tumor volume treated/control)” value ([6]; 1.5 mg/kg) was 0.03. The toxic deaths total ([6]; 1.5 mg/kg) was 0/10, the ave. tumor vol. ([6]; 1.5 mg/kg) was 4 ± 2 mm^3 and the tumor free total ([6]; 1.5 mg/kg) was 6/10. For the same compound, the “T/C (tumor volume treated/control)” value ([6]; 3.0 mg/kg) was 0.02, the toxic deaths total ([6]; 3.0 mg/kg) was 5/6 and the ave. tumor vol. ([6]; 3.0 mg/kg) was 3 ± 1 mm^3. The tumor free total ([6]; 3.0 mg/kg) was “toxic”, the survival time ([2]; qd 1-5, optimal dose 1 mg/kg) was 19.7 days and the “% T/C” value ([2]; qd 1-5, optimal dose 1 mg/kg) was 182%. For the same compound, the survival time [3, 8] was 20.8 days, the “% T/C” value [3, 8] was 120% and the “order” value [4] was “AMT>5-Me-5-dAMT>5-dAMT>MTX>5-dMTX>5-Me5-dMTX”. The “Rate of net polyglutamate formation” value [4] was 42.9 pM/min/g dry wt, the “Mediated Transport efflux k + SE” value [5] was 0.31 ± 0.05 min⁻¹ and the Km [5] was 3.2 ± 0.4 µM.

CCN(Cc1cnc2nc(N)nc(N)c2c1C)c1ccc(C(=O)N[C@@H](CCC(=O)O)C(=O)O)cc1 [Compound 21] was tested, and the IC50 [1, 7] was 0.26 ± 0.02 nM, the “potency in the L1210 cell growth inhibition test relative to 5-deazamethotrexate” value [1] was “more than 10 times” and the “potency in the L1210 cell growth inhibition test relative to MTX” value [1] was 10 times. For the same compound, the “Mediated Transport efflux k + SE” value [5] was 0.29 ± 0.04 min⁻¹ and the Km [5] was 3.3 ± 0.5 µM.

CN(Cc1cnc2nc(N)nc(N)c2n1)c1ccc(C(=O)N[C@@H](CCC(=O)O)C(=O)O)cc1 [MTX, Methotrexate, reference compound] was tested, and the “AWC (average weight change)” value ([6]; 1.5 mg/kg) was “+0.9 g”, the “T/C (tumor volume treated/control)” value ([6]; 1.5 mg/kg) was 0.60 and the toxic deaths total ([6]; 1.5 mg/kg) was 0/10. The ave. tumor vol. ([6]; 1.5 mg/kg) was 102 ± 32 mm^3, the tumor free total ([6]; 1.5 mg/kg) was 1/10 and the “AWC (average weight change)” value ([6]; 3.0 mg/kg) was -0.2 g. For the same compound, the “T/C (tumor volume treated/control)” value ([6]; 3.0 mg/kg) was 0.61, the toxic deaths total ([6]; 3.0 mg/kg) was 0/10 and the ave. tumor vol. ([6]; 3.0 mg/kg) was 108 ± 24 mm^3. The tumor free total ([6]; 3.0 mg/kg) was 1/10, the “AWC (average weight change)” value ([6]; 6.0 mg/kg) was -2.1 g and the “T/C (tumor volume treated/control)” value ([6]; 6.0 mg/kg) was 0.12. The toxic deaths total ([6]; 6.0 mg/kg) was 4/10, the ave. tumor vol. ([6]; 6.0 mg/kg) was 22 ± 5 mm^3 and the tumor free total ([6]; 6.0 mg/kg) was “toxic”. For the same compound, the survival time ([2]; qd 1-5, optimal dose 4 mg/kg) was 19.7 days, the “% T/C” value ([2]; qd 1-5, optimal dose 4 mg/kg) was 182% and the survival time ([3]; qd 1-5, optimal dose 3.5 mg/kg) was 20.3 days. For the same compound, the “% T/C” value ([3]; qd 1-5, optimal dose 3.5 mg/kg) was 118%, the “order” value [4] was “AMT>5-Me-5-dAMT>5-dAMT>MTX>5-dMTX>5-Me5-dMTX” and the “Mediated Transport efflux k + SE” value [5] was 0.33 ± 0.06 min⁻¹. The Km [5] was 3.3 ± 0.7 µM.
